# Data published in the Deep4Chem optical property database.
# Test: solvent given as SMILES
structure (smiles),measurement,setting,value
CC[N+](CC)=c1ccc2cc3c(oc-2c1)-c1ccc(N(C)C)cc1CC3,absorption maximum,in CCO,612 nm
same,absorption maximum,in ClCCl,619 nm
same,absorption maximum,in O,604 nm
COc1ccc(-c2c3nc(cc4ccc([nH]4)c(-c4ccc(OC)c(OCCCC(=O)O)c4)c4nc(cc5ccc2[nH]5)C=C4)C=C3)cc1OCCCC(=O)O,absorption maximum,in CS(C)=O,634 nm
Cn1nc(-c2ccc(C(F)(F)F)cc2)cc1-c1ccccc1,absorption maximum,in ClCCl,260 nm
CCSSCC,absorption maximum,in CCCCCC,250 nm
COc1cc(OC)cc(-c2ccc(C3=CC(c4ccccc4)=C(c4ccccc4)C3)cc2)c1,absorption maximum,in ClCCl,366 nm
CCCCCCCCOc1ccc(C2=C3C(C)=C(C#Cc4ccc(B(c5c(C)cc(C)cc5C)c5c(C)cc(C)cc5C)cc4)C(C)=[N+]3[B-](F)(F)n3c(C)c(C#Cc4ccc(B(c5c(C)cc(C)cc5C)c5c(C)cc(C)cc5C)cc4)c(C)c32)cc1,absorption maximum,in CC#N,568.51 nm
same,absorption maximum,in CCCCCC,580.18 nm
same,absorption maximum,in ClCCl,576 nm
c1ccc(-n2c3ccccc3c3cc(-c4ccc5nc(-c6ccc(-n7c8ccccc8c8ccccc87)cc6)nn5c4)ccc32)cc1,absorption maximum,in C1CCOC1,340 nm
COC(=O)c1nc2cnc(N(C)C)nc2n1Cc1ccccc1,absorption maximum,in C1COCCO1,358 nm
same,absorption maximum,in CC#N,359 nm
same,absorption maximum,in CO,362 nm
same,absorption maximum,in ClCCl,362 nm
CCN1c2ccc(/C=N/Nc3ccccn3)cc2Sc2cc(/C=N/Nc3ccccn3)ccc21,absorption maximum,in C1CCOC1,392 nm
same,absorption maximum,in CS(C)=O,398 nm
same,absorption maximum,in Cc1ccccc1,392 nm
same,absorption maximum,in ClCCl,393 nm
CCN(CC)c1ccc2cc(C#N)/c(=N\C(=O)c3ccco3)oc2c1,absorption maximum,in CCO,424 nm
same,absorption maximum,in ClCCl,430 nm
CC(C)(C)c1ccc(C#Cc2cc(C#Cc3ccc(C(C)(C)C)cc3)c(C#Cc3ccc(C(C)(C)C)cc3)c(C#Cc3ccc(C(C)(C)C)cc3)c2C#Cc2ccc(C(C)(C)C)cc2)cc1,absorption maximum,in ClCCl,373 nm
Cc1sc(-c2ccc(-c3nc(-c4ccccc4)c(-c4ccccc4)[nH]3)cc2)c(C)c1C1=C(c2c(C)n(C)c3ccccc23)C(F)(F)C(F)(F)C1(F)F,absorption maximum,in C1CCOC1,313 nm
F[B-]1(F)N2C(=Nc3cccc4cccc2c34)c2cccc[n+]21,absorption maximum,in CC#N,350 nm
same,absorption maximum,in CO,348 nm
same,absorption maximum,in CS(C)=O,351 nm
same,absorption maximum,in Cc1ccccc1,354 nm
C/C(=C\c1ccc(Cl)cc1)c1nc2ccccc2s1,absorption maximum,in C1CCCCC1,320 nm
same,absorption maximum,in CO,320 nm
CC1=c2c3c4cccc5cccc(c=3c(C)[n+]2[B-](F)(F)n2c(C)c3c(c21)-c1cccc2cccc-3c12)c54,absorption maximum,in ClC(Cl)Cl,657 nm
CCOC(=O)C1=C(N)n2c(=O)c3ccccc3c(=O)n2C1c1ccc(C)cc1 (stereo not given),absorption maximum,in CS(C)=O,365 nm
CCCCCCC(CCCCCC)N1C(=O)c2cccc3c(-c4ccc([Si](C)(C)C)cc4)ccc(c23)C1=O,absorption maximum,in CCCCCC,343.4 nm
same,absorption maximum,in CCCCCCCCCCCCCC,344.4 nm
same,absorption maximum,in CCCCCCCCCCCO,355 nm
same,absorption maximum,in CCCCO,357.6 nm
same,absorption maximum,in CN(C)C=O,356 nm
same,absorption maximum,in Cc1ccccc1,353.4 nm
same,absorption maximum,in ClC(Cl)Cl,356 nm
COc1ccc(-c2c3cc4cc(C)sc4cc3c(-c3ccc(OC)cc3)c3cc4cc(C)sc4cc23)cc1,absorption maximum,in ClCCl,500 nm
O=C(c1cc(F)c(N2CCOCC2)cc1F)c1cc(F)c(N2CCOCC2)cc1F,absorption maximum,in CCO,342 nm
CCOC(=O)c1c(-c2cc3cc4c(cc3oc2=O)OC(C)(C)CC4)nn(-c2cccc(C)c2)c1C(=O)OCC,absorption maximum,in ClCCl,347 nm
O=c1c2ccccc2[nH]c2ccccc12,absorption maximum,in CS(C)=O,398 nm
same,absorption maximum,in O,385 nm
CC(C)(C)Nc1c(-c2ccc(-c3cc(=O)cc(-c4ccccc4)o3)cc2)nc2ccccn12,absorption maximum,in ClCCl,355 nm
c1cc2ccc3[o+]c4ccc5cccc6c7cccc8c(c1)c2c3c(c87)c4c56,absorption maximum,in ClCCl,573 nm
CCCCCCCCC1(CCCCCCCC)c2cc(C#CC#Cc3ccc(N(c4ccccc4)c4ccccc4)cc3)ccc2-c2ccc(C=O)cc21,absorption maximum,in C1CCOC1,377 nm
same,absorption maximum,in C1COCCO1,383 nm
same,absorption maximum,in CC#N,375 nm
same,absorption maximum,in CC(C)=O,389 nm
same,absorption maximum,in CCCCCC,378 nm
same,absorption maximum,in CCOC(C)=O,381 nm
same,absorption maximum,in CN(C)C=O,382 nm
same,absorption maximum,in CS(C)=O,382 nm
same,absorption maximum,in Cc1ccccc1,387 nm
same,absorption maximum,in ClC(Cl)Cl,375 nm
same,absorption maximum,in ClCCl,365 nm
c1ccc2c(c1)c1ccccc1c1ccccc21,absorption maximum,in ClCCl,286 nm
COC(=O)C(NC(=O)OC(C)(C)C)c1ccc2oc(-c3cc(OC)c(OC)c(OC)c3)nc2c1 (stereo not given),absorption maximum,in CC1CCCCC1,327 nm
same,absorption maximum,in CC#N,312 nm
same,absorption maximum,in CO,313 nm
